Assay results taken from ChEMBL document CHEMBL2040786, “Click chemistry-derived bivalent quinine inhibitors of P-glycoprotein-mediated cellular efflux” (Bioorg Med Chem Lett, 2012).

Each compound was assayed against T1, ATP-dependent translocase ABCB1 (Homo sapiens, UniProt P08183) (assay: Inhibition of p-glycoprotein expressed in human MCF-7/DX1 cells assessed as accumulation of calcein-AM at 1 uM by FACS analysis).
Assay type: cell-based; call rule not given here

T1 sequence (P08183 whole entry): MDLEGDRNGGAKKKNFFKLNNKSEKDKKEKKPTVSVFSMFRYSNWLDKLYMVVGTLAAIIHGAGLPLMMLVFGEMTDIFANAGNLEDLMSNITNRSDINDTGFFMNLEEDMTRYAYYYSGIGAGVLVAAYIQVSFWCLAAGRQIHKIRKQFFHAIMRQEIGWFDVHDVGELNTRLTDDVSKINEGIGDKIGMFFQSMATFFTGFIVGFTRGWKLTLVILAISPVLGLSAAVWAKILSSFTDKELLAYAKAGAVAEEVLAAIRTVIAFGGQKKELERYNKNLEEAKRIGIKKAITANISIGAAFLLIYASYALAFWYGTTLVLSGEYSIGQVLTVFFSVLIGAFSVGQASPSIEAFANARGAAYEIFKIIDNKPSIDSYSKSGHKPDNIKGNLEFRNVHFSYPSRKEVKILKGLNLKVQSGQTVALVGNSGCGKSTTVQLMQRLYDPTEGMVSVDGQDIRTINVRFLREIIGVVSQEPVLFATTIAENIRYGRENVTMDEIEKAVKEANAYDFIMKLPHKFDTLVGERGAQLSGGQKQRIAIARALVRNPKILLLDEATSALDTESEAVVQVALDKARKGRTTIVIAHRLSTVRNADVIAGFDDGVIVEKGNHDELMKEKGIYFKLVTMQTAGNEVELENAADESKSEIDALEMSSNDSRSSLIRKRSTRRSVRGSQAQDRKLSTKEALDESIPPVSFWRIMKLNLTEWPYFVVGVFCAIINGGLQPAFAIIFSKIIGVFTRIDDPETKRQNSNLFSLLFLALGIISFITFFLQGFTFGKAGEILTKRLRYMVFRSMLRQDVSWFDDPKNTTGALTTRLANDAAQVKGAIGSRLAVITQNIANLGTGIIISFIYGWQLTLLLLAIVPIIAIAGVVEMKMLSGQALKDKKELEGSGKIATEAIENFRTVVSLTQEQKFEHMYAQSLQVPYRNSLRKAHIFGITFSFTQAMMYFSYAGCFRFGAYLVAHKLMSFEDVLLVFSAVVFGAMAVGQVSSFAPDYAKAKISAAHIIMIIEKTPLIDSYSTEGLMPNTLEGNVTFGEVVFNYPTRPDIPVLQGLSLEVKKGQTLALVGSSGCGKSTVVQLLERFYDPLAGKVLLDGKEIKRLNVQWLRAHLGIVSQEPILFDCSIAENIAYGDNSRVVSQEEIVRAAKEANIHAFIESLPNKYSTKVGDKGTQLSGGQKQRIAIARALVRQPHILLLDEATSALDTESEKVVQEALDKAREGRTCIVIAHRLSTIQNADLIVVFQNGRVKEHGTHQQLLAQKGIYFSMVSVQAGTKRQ

| Compound | inhibition (INH) |
| --- | --- |
| C=C[C@H]1CN2CC[C@H]1C[C@H]2[C@H](OC(=O)CCCCCCc1cn(CCCCCCC(=O)O[C@H](c2ccnc3ccc(OC)cc23)[C@@H]2C[C@@H]3CCN2C[C@@H]3C=C)nn1)c1ccnc2ccc(OC)cc12 | Active |

What follows are compounds tested against T1, ATP-dependent translocase ABCB1 (assay: Inhibition of p-glycoprotein expressed in human MCF-7/DX1 cells assessed as accumulation of calcein-AM by FACS analysis).
Assay type: cell-based

| Compound | IC50 [µM] |
| --- | --- |
| C=C[C@H]1CN2CC[C@H]1C[C@H]2[C@H](OC(=O)CCCCCCc1cn(CCCCCCC(=O)O[C@H](c2ccnc3ccc(OC)cc23)[C@@H]2C[C@@H]3CCN2C[C@@H]3C=C)nn1)c1ccnc2ccc(OC)cc12 | 2.7 |
| C=C[C@H]1CN2CC[C@H]1C[C@H]2[C@H](OC(=O)CCCCCCn1cc(CCC(=O)O[C@H](c2ccnc3ccc(OC)cc23)[C@@H]2C[C@@H]3CCN2C[C@@H]3C=C)nn1)c1ccnc2ccc(OC)cc12 | 3.6 |
| C=C[C@H]1CN2CC[C@H]1C[C@H]2[C@H](OC(=O)CCCCn1cc(CCC(=O)O[C@H](c2ccnc3ccc(OC)cc23)[C@@H]2C[C@@H]3CCN2C[C@@H]3C=C)nn1)c1ccnc2ccc(OC)cc12 | 6.2 |
| C=C[C@H]1CN2CC[C@H]1C[C@H]2[C@H](OC(=O)CCCCCCc1cn(CCCCC(=O)O[C@H](c2ccnc3ccc(OC)cc23)[C@@H]2C[C@@H]3CCN2C[C@@H]3C=C)nn1)c1ccnc2ccc(OC)cc12 | 2.8 |

Continued, values first:

| IC50 [µM] | Compound |
| --- | --- |
| 4.6 | C=C[C@H]1CN2CC[C@H]1C[C@H]2[C@H](OC(=O)CCCCc1cn(CCCCC(=O)O[C@H](c2ccnc3ccc(OC)cc23)[C@@H]2C[C@@H]3CCN2C[C@@H]3C=C)nn1)c1ccnc2ccc(OC)cc12 |
| 6.1 | C=C[C@H]1CN2CC[C@H]1C[C@H]2[C@H](OC(=O)CCc1cn(CCC(=O)O[C@H](c2ccnc3ccc(OC)cc23)[C@@H]2C[C@@H]3CCN2C[C@@H]3C=C)nn1)c1ccnc2ccc(OC)cc12 |
| 4.5 | C=C[C@H]1CN2CC[C@H]1C[C@H]2[C@H](OC(=O)CCCCCCCCc1cn(CCCCCCCCC(=O)O[C@H](c2ccnc3ccc(OC)cc23)[C@@H]2C[C@@H]3CCN2C[C@@H]3C=C)nn1)c1ccnc2ccc(OC)cc12 |
| 2.9 | C=C[C@H]1CN2CC[C@H]1C[C@H]2[C@H](OC(=O)CCCCCCn1cc(CCCCC(=O)O[C@H](c2ccnc3ccc(OC)cc23)[C@@H]2C[C@@H]3CCN2C[C@@H]3C=C)nn1)c1ccnc2ccc(OC)cc12 |
